This data set has as its target P-gp (Homo sapiens, UniProt P08183). In words: Thermostabilization assay on ATPase activity of P-gp. The format is biochemical. Set-up: made in house; host or cells: High-Five insect cells (total membrane vesicles). As to conditions: C4a 10 μM. As for the experimental part:
The thermal stability assay was performed according to previous reports. […] To evaluate the effect of C4a over thermal stability, each sample was prepared with 12.5 mM MgCl2 or 6.25 mM ATP and incubated at a temperature ranging from 37 to 71 °C for 10 min using a thermocycler C1000 Touch (Bio-Rad, Hercules, CA, USA). After incubation, 10 µL of 25 mM ATP or 50 mM MgCl2 (5 and 10 mM final concentration, respectively) was added and incubated at 37 °C/20 min to allow ATP hydrolysis. The reaction was stopped with the addition of 50 µL of Pi reagent containing 1% ammonium molybdate, 2.5 N H2SO4 and 0.014% potassium-antimony tartrate. To evaluate the absorbance, the samples were transferred to a 96-well plate (50 µL/well), then 150 µL of 0.33% sodium ascorbate solution was added. The absorbance was measured after 10 min incubation at room temperature using the microplate reader Spectramax iD3 (Molecular Devices, San Jose, CA, USA). The sensitive activity to vanadate (Vi) was calculated as the difference between the activity in the absence of Vi minus the activity in the presence of Vi at each temperature.

Each structure is given as a SMILES string.

P-gp, sequence (P08183 whole entry): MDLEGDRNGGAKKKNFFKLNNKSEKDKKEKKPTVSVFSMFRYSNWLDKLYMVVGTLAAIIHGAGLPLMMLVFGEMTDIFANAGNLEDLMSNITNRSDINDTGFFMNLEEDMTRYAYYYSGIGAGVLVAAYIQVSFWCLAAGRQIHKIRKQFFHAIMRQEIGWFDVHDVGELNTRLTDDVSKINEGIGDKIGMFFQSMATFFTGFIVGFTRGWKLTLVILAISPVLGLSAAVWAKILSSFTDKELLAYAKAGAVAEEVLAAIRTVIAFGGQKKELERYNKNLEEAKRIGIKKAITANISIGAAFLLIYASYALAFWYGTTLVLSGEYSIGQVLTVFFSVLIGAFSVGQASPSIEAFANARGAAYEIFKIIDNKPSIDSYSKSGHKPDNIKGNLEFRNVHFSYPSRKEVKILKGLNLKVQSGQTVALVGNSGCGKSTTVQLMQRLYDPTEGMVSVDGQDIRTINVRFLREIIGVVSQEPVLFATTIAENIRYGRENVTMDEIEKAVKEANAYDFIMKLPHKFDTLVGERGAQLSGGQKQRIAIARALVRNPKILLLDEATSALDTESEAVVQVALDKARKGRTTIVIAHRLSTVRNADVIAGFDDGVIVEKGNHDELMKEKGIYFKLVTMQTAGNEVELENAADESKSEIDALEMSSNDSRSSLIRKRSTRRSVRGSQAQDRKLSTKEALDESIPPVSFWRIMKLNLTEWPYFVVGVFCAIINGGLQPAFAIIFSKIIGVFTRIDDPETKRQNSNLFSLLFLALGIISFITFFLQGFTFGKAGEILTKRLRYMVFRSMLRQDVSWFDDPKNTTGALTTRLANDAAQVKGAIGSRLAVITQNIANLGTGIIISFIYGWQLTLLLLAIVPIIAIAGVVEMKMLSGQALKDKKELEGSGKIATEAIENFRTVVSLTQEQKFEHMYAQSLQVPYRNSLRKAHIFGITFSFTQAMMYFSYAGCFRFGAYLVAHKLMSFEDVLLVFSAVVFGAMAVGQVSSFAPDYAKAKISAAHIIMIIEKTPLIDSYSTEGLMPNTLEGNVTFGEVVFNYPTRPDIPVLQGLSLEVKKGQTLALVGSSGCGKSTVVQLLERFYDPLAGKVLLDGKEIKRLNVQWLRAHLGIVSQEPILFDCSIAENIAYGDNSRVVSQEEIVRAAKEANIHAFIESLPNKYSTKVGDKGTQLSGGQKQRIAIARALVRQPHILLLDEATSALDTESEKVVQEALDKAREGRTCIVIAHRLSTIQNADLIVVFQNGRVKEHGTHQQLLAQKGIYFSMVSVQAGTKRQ

Regarding `COc1ccc2[nH]cc(CCNC(=O)c3cc(=O)c4c(OCc5ccccc5Br)cccc4o3)c2c1` [C4a, chromone 4a], the “effect on ATP-induced thermostabilization of P-gp” value is given as “preventing thermostabilization”. In addition, the “IT50, P-gp -ATP” value (absence of ATP) is listed as 50.02 ± 0.31 ºC.
